From ChEMBL document CHEMBL5131551, “Novel Bicyclic Dione Compounds as KRAS Inhibitors for Treating Cancer” (ACS Med Chem Lett, 2022)

What was measured:
GTPase KRas [1] = molecular target: T1, GTPase KRas (Homo sapiens, UniProt P01116, G12C); assay: Inhibition of BODIPY loaded KRAS G12C mutant (unknown origin) assessed as inhibition of GDP-GTP exchange rate preincubated for 2 hrs and measured after 2 hrs in presence of SOS1-GppNHp mixture by BODIPY fluorescence based PHERAstar plate reader analysis
GTPase KRas [2] = molecular target: T1, GTPase KRas; assay: Inhibition of KRAS G12C mutant in human MIA PaCa-2 cells assessed as reduction in phosphorylated ERK level incubation for 2 to 4 hrs by HTRF assay; format: cell-based

T1 sequence (P01116 whole entry G12C): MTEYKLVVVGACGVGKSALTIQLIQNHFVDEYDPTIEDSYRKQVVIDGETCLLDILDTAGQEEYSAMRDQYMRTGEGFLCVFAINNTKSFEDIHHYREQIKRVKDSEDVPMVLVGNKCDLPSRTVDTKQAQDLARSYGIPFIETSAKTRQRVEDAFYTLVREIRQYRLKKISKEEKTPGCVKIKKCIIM

Row | SMILES | IC50 (GTPase KRas [1]) [nM] | IC50 (GTPase KRas [2]) [nM]
1 | C=CC(=O)N1CC(F)(Cn2c(=O)c(=O)n(-c3c(C(C)C)cccc3C(C)C)c3nc(-c4cc(O)cc5ccccc45)c(Cl)cc32)C1 | ≤ 100 | ≤ 100
2 | C=CC(=O)N1CC(F)(Cn2c(=O)c(=O)n(-c3c(C)ccnc3C(C)C)c3nc(-c4c(Cl)ccc5c4OCO5)c(Cl)cc32)C1 | ≤ 100 | ≤ 100
3 | C=CC(=O)N1CC(F)(Cn2c(=O)c(=O)n(-c3c(C)ccnc3C(C)C)c3nc(-c4cccc(Cl)c4Cl)c(Cl)cc32)C1 | ≤ 100 | ≤ 100

Further lines, results first:

Row | IC50 (GTPase KRas [1]) [nM] | IC50 (GTPase KRas [2]) [nM] | SMILES
4 | ≤ 100 | ≤ 100 | C=CC(=O)N1CC(F)(Cn2c(=O)c(=O)n(-c3c(C)ccnc3C(C)C)c3nc(-c4c(N)cccc4F)c(Cl)cc32)C1
5 | ≤ 100 | ≤ 100 | C=CC(=O)N1CC(F)(Cn2c(=O)c(=O)n(-c3c(C)ccnc3C(C)C)c3nc(-c4ccccc4F)c(Cl)cc32)C1
6 | ≤ 100 | ≤ 100 | C=CC(=O)N1CC(F)(Cn2c(=O)c(=O)n(-c3c(C)ccnc3C(C)C)c3nc(-c4c(F)ccc(F)c4O)c(Cl)cc32)C1
